Patent US12649727B2, “EFGR inhibitor, preparation method therefor and application thereof” (Abbisko Therapeutics Co., Ltd, priority 2020, dated 2026)

Columns and labels:
Type in all cases: cell-based
[1] = molecular target: Ba/F3 EGFR-V769_D770insASV (Homo sapiens, UniProt P00533, DUP767-769, cells depend on it); test: Proliferation experiment of Ba/F3 cell line, EGFR-V769_D770insASV (CellTiter-Glo); conditions: cultured for 72 hrs with compound, CTG analysis, read-out: Ba/F3 EGFR-V769_D770insASV IC50
Ba/F3 EGFR-V769_D770insASV, sequence (P00533 with tags, fused parts or gaps DUP767-769): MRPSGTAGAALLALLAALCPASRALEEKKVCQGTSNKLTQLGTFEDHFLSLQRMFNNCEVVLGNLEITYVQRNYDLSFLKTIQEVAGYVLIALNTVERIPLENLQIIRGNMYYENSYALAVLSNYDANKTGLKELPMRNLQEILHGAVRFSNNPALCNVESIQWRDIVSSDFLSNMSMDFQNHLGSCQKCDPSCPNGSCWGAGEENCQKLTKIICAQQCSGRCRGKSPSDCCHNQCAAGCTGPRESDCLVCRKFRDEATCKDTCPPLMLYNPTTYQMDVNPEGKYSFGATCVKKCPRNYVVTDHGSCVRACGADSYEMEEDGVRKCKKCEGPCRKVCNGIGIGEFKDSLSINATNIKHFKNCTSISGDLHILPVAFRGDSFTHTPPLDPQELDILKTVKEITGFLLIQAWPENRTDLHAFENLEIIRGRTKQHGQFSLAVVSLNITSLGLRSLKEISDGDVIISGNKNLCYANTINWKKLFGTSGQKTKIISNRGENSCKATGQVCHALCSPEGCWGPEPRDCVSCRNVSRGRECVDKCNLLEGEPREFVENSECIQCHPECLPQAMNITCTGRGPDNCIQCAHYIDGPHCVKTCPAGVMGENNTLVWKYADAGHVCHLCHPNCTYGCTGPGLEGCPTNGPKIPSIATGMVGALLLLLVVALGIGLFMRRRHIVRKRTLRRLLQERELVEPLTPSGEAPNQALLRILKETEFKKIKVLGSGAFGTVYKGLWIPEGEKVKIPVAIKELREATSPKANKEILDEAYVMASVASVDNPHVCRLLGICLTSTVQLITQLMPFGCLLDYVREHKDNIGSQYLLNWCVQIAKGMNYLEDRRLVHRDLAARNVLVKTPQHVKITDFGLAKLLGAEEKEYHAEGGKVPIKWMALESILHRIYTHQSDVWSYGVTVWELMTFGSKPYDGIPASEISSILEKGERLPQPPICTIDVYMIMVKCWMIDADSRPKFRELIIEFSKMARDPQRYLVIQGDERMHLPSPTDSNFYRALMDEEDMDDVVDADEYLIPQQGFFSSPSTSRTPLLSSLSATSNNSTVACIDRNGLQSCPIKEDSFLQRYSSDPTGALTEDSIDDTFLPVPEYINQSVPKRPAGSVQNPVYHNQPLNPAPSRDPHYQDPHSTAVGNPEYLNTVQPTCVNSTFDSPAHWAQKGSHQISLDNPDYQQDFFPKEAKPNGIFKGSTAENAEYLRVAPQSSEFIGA
Summary of the method: (§1)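 […] Ba/F3 cells expressing EGFR insertion mutants treated 72 h at 37 °C with 9 concentrations, 3.16-fold dilutions, top 10 μM, 0.1% DMSO, in triplicate. Viability by CellTiter-Glo luminescence with T0 reference plate; IC50 (nM) from non-linear dose-response fit.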

A431 (EGFR-WT) = test: Proliferation experiment, A431 cell line (CellTiter-Glo); conditions: Homo sapiens, A-431; A431 cells, cultured for 72 hrs with compound, CTG analysis
[2] = molecular target: Ba/F3 EGFR-D770-N771ins_SVD (Homo sapiens, UniProt P00533, DUP768-770, cells depend on it); test: Proliferation experiment of Ba/F3 cell line, EGFR-D770-N771ins_SVD (CellTiter-Glo); conditions: cultured for 72 hrs with compound, CTG analysis, read-out: Ba/F3 EGFR-D770-N771ins_SVD IC50
Ba/F3 EGFR-D770-N771ins_SVD, sequence (P00533 with tags, fused parts or gaps DUP768-770): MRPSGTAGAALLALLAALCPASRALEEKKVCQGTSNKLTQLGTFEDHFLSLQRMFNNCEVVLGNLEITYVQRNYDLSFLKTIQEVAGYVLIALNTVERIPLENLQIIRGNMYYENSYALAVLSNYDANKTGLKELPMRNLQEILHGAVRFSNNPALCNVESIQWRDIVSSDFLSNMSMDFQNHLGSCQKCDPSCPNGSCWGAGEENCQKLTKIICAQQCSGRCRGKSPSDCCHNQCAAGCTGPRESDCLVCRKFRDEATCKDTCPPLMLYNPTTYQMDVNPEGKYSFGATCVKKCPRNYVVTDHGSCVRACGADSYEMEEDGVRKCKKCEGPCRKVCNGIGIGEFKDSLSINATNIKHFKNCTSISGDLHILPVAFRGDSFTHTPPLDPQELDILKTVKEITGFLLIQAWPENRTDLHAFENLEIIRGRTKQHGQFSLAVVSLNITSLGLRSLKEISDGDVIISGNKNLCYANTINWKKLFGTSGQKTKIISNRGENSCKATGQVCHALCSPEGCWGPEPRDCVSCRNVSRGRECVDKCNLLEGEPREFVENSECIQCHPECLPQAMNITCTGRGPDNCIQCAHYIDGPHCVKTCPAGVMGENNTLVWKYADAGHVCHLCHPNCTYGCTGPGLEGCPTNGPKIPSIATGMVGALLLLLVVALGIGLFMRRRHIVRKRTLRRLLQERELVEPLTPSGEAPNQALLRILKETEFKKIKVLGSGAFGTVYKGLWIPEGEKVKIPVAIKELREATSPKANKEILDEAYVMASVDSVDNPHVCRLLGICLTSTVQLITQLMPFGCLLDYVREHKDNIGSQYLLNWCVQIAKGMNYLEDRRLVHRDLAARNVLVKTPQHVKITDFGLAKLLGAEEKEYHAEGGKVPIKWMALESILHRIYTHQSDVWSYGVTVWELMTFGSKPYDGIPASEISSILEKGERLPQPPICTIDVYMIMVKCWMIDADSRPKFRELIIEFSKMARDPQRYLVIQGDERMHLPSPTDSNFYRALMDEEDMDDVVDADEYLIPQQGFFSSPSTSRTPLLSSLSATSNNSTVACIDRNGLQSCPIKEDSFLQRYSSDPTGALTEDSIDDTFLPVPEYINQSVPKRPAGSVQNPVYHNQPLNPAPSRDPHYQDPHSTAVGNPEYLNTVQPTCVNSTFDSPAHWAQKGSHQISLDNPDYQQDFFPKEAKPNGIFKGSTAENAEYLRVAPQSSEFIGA
Summary of the method: as §1

GI50 [1] | IC50 (A431 (EGFR-WT)) | GI50 [2] | Structure (SMILES)
4.4 nM | 136 nM | 3.5 nM | C=CC(=O)Nc1cc2c(Nc3ccnc(-c4c(F)cccc4F)c3)ncnc2cc1OCCCN1CCN(C)CC1 [Example 74, N-(4-((2-(2,6-difluorophenyl)pyridin-4-yl)amino)-7-(3-(4-methylpiperazin-1-yl)propoxy)quinazolin-6-yl)acrylamide]
9.1 nM | 104 nM | 2.9 nM | C=CC(=O)Nc1cc2c(Nc3ccnc(-c4ccccc4F)c3)ncnc2cc1O[C@@H]1CCN(CC)C1 [Example 124, (R)-N-(7-((1-ethylpyrrolidin-3-yl)oxy)-4-((2-(2-fluorophenyl)pyridin-4-yl)amino)quinazolin-6-yl)acrylamide]
35 nM | 2500 nM | 12.7 nM | C=C(F)C(=O)Nc1cc2c(Nc3ccnc(-c4ccccc4F)c3)ncnc2cc1N1CCC1 [Example 105, N-(7-(azetidin-1-yl)-4-((2-(2-fluorophenyl)pyridin-4-yl)amino)quinazolin-6-yl)-2-fluoroacrylamide]
6.8 nM | 63.9 nM | 3.8 nM | C=CC(=O)Nc1cc2c(Nc3ccnc(-c4ccccc4F)c3)ncnc2cc1OCCCN1CCN(CCO)CC1 [Example 122, N-(4-((2-(2-fluorophenyl)pyridin-4-yl)amino)-7-(3-(4-(2-hydroxyethyl)piperazin-1-yl)propoxy)quinazolin-6-yl)acrylamide]
9.8 nM | 19.1 nM | 2.6 nM | C=C(F)C(=O)Nc1cc2c(Nc3ccnc(-c4ccccc4F)c3)ncnc2cc1O[C@@H]1CCN(C2COC2)C1 [Example 118, (R)-2-fluoro-N-(4-((2-(2-fluorophenyl)pyridin-4-yl)amino)-7-((1-(oxetan-3-yl)pyrrolidin-3-yl)oxy)quinazolin-6-yl)acrylamide]
14.8 nM | 225 nM | 4.4 nM | C=C(F)C(=O)Nc1cc2c(Nc3ccnc(-c4ccccc4F)c3)ncnc2cc1N1CCC(O)CC1 [Example 100, 2-fluoro-N-(4-((2-(2-fluorophenyl)pyridin-4-yl)amino)-7-(4-hydroxypiperidin-1-yl)quinazolin-6-yl)acrylamide]
6.1 nM | 15 nM | 30 nM | C=C(F)C(=O)Nc1cc2c(Nc3ccnc(-c4ccccc4F)c3)ncnc2cc1N1CCC(N2CCN(C)CC2)CC1 [Example 103, 2-fluoro-N-(4-((2-(2-fluorophenyl)pyridin-4-yl)amino)-7-(4-(4-methylpiperazin-1-yl)piperidin-1-yl)quinazolin-6-yl)acrylamide]
6.5 nM | 10.2 nM | 5.9 nM | C=C(F)C(=O)Nc1cc2c(Nc3ccnc(-c4ccccc4F)c3)ncnc2cc1O[C@@H]1CCN(C)C1 [Example 66, (R)-2-fluoro-N-(4-((2-(2-fluorophenyl)pyridin-4-yl)amino)-7-((1-methylpyrrolidin-3-yl)oxy)quinazolin-6-yl)acrylamide]
2.5 nM | 19.3 nM | 1.3 nM | C=CC(=O)Nc1cc2c(Nc3ccnc(-c4ccccc4F)c3)ncnc2cc1OCCN1CCOCC1 [Example 68, N-(4-((2-(2-fluorophenyl)pyridin-4-yl)amino)-7-(2-morpholinoethoxy)quinazolin-6-yl)acrylamide]
23.6 nM | 348 nM | 11 nM | C=CC(=O)Nc1cc2c(Nc3cncc(-c4c(F)cccc4F)c3)ncnc2cc1OCCCN1CCN(C)CC1 [Example 62, N-(4-((5-(2,6-difluorophenyl)pyridin-3-yl)amino)-7-(3-(4-methylpiperazin-1-yl)propoxy)quinazolin-6-yl)acrylamide]

The remaining lines, values behind:

Structure (SMILES) | GI50 [1] | IC50 (A431 (EGFR-WT)) | GI50 [2]
C=CC(=O)Nc1cc2c(Nc3cccc(-c4ccc(F)cc4F)c3)ncnc2cc1OCCCN1CCC(F)(F)C1 [Example 15, N-(4-((2′,4′-difluoro-[1,1′-biphenyl]-3-yl)amino)-7-(3-(3,3-difluoropyrrolidin-1-yl)propoxy)quinazolin-6-yl)acrylamide] | 137 nM | 498 nM | 56.1 nM
C=CC(=O)Nc1cc2c(Nc3cccc(-c4ccc(F)cc4)c3)ncnc2cc1OCCCN1CCOCC1 [Example 6, N-(4-((4′-fluoro-[1,1′-biphenyl]-3-yl)amino)-7-(3-morpholinopropoxy)quinazolin-6-yl)acrylamide] | 89 nM | 61.4 nM | 37.5 nM
C=CC(=O)Nc1cc2c(Nc3cncc(-c4ccccc4F)c3)ncnc2cc1OCCCN1CCN(C)CC1 [Example 59, N-(4-((5-(2-fluorophenyl)pyridin-3-yl)amino)-7-(3-(4-methylpiperazin-1-yl)propoxy)quinazolin-6-yl)acrylamide] | 11.2 nM | 226 nM | 4.2 nM
C=CC(=O)Nc1cc2c(Nc3cccc(-c4c(F)cccc4F)c3)ncnc2cc1OCCCN1CC(N(C)C)C1 [Example 36, N-(4-((2′,6′-difluoro-[1,1′-biphenyl]-3-yl)amino)-7-(3-(3-(dimethylamino)azetidin-1-yl)propoxy)quinazolin-6-yl)acrylamide] | 68.6 nM | 235 nM | 32.3 nM
C=CC(=O)Nc1cc2c(Nc3ccc(F)c(-c4ccccn4)c3)ncnc2cc1OCCCN1CCN(C)CC1 [Example 50, N-(4-((4-fluoro-3-(pyridin-2-yl)phenyl)amino)-7-(3-(4-methylpiperazin-1-yl)propoxy)quinazolin-6-yl)acrylamide] | 37.9 nM | 48 nM | 23.3 nM
C=CC(=O)Nc1cc2c(Nc3cccc(-n4cccn4)c3)ncnc2cc1OCCCN1CCN(C)CC1 [Example 53, N-(4-((3-(1H-pyrazol-1-yl)phenyl)amino)-7-(3-(4-methylpiperazin-1-yl)propoxy)quinazolin-6-yl)acrylamide] | 22.3 nM | 341 nM | 11.4 nM
C=CC(=O)Nc1cc2c(Nc3cccc(-c4ccc(F)cc4F)c3)ncnc2cc1OCCN1CCC(F)(F)CC1 [Example 21, N-(4-((2′,4′-difluoro-[1,1′-biphenyl]-3-yl)amino)-7-(2-(4,4-difluoropiperidin-1-yl)ethoxy)quinazolin-6-yl)acrylamide] | 240 nM | 966 nM | 104 nM
C=CC(=O)Nc1cc2c(Nc3cccc(-c4c(F)cccc4F)c3)ncnc2cc1OCCCN1CCN(C2COC2)CC1 [Example 30, N-(4-((2′,6′-difluoro-[1,1′-biphenyl]-3-yl)amino)-7-(3-(4-(oxetan-3-yl)piperazin-1-yl)propoxy)quinazolin-6-yl)acrylamide] | 54.1 nM | 68.1 nM | 25.3 nM
C=CC(=O)Nc1cc2c(Nc3cccc(-c4c(F)cccc4F)c3)ncnc2cc1OCCCN1CCN(C)C(=O)C1 [Example 32, N-(4-((2′,6′-difluoro-[1,1′-biphenyl]-3-yl)amino)-7-(3-(4-methyl-3-oxopiperazin-1-yl)propoxy)quinazolin-6-yl)acrylamide] | 86.3 nM | 205 nM | 35.9 nM
C=CC(=O)Nc1cc2c(Nc3ccc(F)c(-c4ccccc4)c3)ncnc2cc1OCCCN1CCOCC1 [Example 47, N-(4-((6-fluoro-[1,1′-biphenyl]-3-yl)amino)-7-(3-morpholinopropoxy)quinazolin-6-yl)acrylamide] | 41.4 nM | 190 nM | 29.5 nM
C=CC(=O)Nc1cc2c(Nc3cccc(-c4c(F)cccc4F)c3)ncnc2cc1OCCCN1CC[C@H](N(C)C)C1 [Example 35, (S)-N-(4-((2′,6′-difluoro-[1,1′-biphenyl]-3-yl)amino)-7-(3-(3-(dimethylamino)pyrrolidin-1-yl)propoxy)quinazolin-6-yl)acrylamide] | 35.6 nM | 193 nM | 26.8 nM
C=CC(=O)Nc1cc2c(Nc3cccc(-c4c(F)cccc4F)c3)ncnc2cc1OCCCN1CCN(CC(F)(F)F)CC1 [Example 31, N-(4-((2′,6′-difluoro-[1,1′-biphenyl]-3-yl)amino)-7-(3-(4-(2,2,2-trifluoroethyl)piperazin-1-yl)propoxy)quinazolin-6-yl)acrylamide] | 111 nM | 225 nM | 68.2 nM
C=CC(=O)Nc1cc2c(Nc3cccc(-c4c(F)cccc4F)c3)ncnc2cc1OCCCN1CC[C@@H](N(C)C)C1 [Example 34, (R)-N-(4-((2′,6′-difluoro-[1,1′-biphenyl]-3-yl)amino)-7-(3-(3-(dimethylamino)pyrrolidin-1-yl)propoxy)quinazolin-6-yl)acrylamide] | 33.1 nM | 260 nM | 21.5 nM
C=CC(=O)Nc1cc2c(Nc3cccc(-c4ccc(F)cc4F)c3)ncnc2cc1OCCCN1CCC(F)(F)CC1 [Example 14, N-(4-((2′,4′-difluoro-[1,1′-biphenyl]-3-yl)amino)-7-(3-(4,4-difluoropiperidin-1-yl)propoxy)quinazolin-6-yl)acrylamide] | 221 nM | 365 nM | 34.4 nM
C=CC(=O)Nc1cc2c(Nc3cc(-c4ccc(F)cc4F)ccc3F)ncnc2cc1OCCCN1CCN(C)CC1 [Example 20, N-(7-(3-(4-methylpiperazin-1-yl)propoxy)-4-((2′,4,4′-trifluoro-[1,1′-biphenyl]-3-yl)amino)quinazolin-6-yl)acrylamide] | 53.9 nM | 252 nM | 36.5 nM
C=CC(=O)Nc1cc2c(Nc3cccc(-c4c(F)cccc4F)c3)ncnc2cc1OCCCN1CCN(C(C)C)CC1 [Example 22, N-(4-((2′,6′-difluoro-[1,1′-biphenyl]-3-yl)amino)-7-(3-(4-isopropylpiperazin-1-yl)propoxy)quinazolin-6-yl)acrylamide] | 30.6 nM | 270 nM | 13.7 nM
